From US7511062B2, “Substituted 2-quinolyl-oxazoles useful as PDE4 inhibitors” (Schering Corporation, priority 2004, dated 2009) come the findings set out here.

The target in this test is Human PDE4 Enzyme. Kind of test: PDE4 screening assay ([3H]cAMP SPA). Format: biochemical. To be noted: human neutrophil PDE4, [3H]cAMP SPA. The method, then: The neutrophils were isolated from human blood using a standard procedure, then homogenized with a glass-glass homogenizer in a buffer containing 20 mM Tris/HCl (pH 8.0), protease inhibitor cocktail tablet (Cat. No. 1836145/Boehringer Mannheim), 2 mM EDTA, 1% Triton X-100 and 0.5% deoxycholate. After stirring for 2 h at 4° C., the samples were centrifuged at 100,000 g for 1 h. The supernatants were collected, filtered and applied to Mono Q column chromatography. The fractions containing the activity of hydrolyzing cAMP were determined and pooled as the enzymatic source of the PDE4 screening assay.
2. PDE4 Assay and Compound Screening
The PDE4 assays were performed using Phosphodiesterase [^3H]cAMP SPA enzyme assay kits and its procedures (Cat. No. TRKQ 7090, Amersham). The assay procedures are described briefly as follows. The diluted PDE4 enzyme, 10× assay buffer and water were mixed at a ratio of 1:1:6 (10 μl/10 μl/60 μl). 80 μl aliquots of this mixture were added into the test wells of a 96-well Microlite plate (Cat. No. 7416, ThermoLabsystems). Enzyme dilution buffer, instead of the diluted enzyme, and water were added into the wells of negative control (background). 10 μl test compounds in 10% DMSO, standard inhibitor in 10% DMSO or 10% DMSO (for positive and negative controls) were added into the corresponding wells, respectively. After a 10 min incubation at RT, the reactions were initiated by addition of 10 μl pre-diluted [^3H]cAMP into each well, then incubated at 30° C. for 30 min. The reactions were stopped by addition of 50 μl SPA beads into the test wells, then counted in a β-counter over 30 min ˜24 hr.
10× Assay Buffer: 500 mM Tris/HCl pH 7.5, 83 mM MgCl2, 17 mM EGTA
[^3H]cAMP: [3H] cAMP (40-60 Ci/mmol) is diluted at a 1:200 ratio with water. The final concentration is 0.005 μCi/μl
Yttrium SPA Beads: 500 mg of beads was reconstituted with 28 ml of water, stored at 4° C.

In the case of `COc1ccc(-c2nc(C(=O)NC3CCCc4nccnc43)c([C@H](C)N)o2)c2ccc(C(F)(F)F)nc12` (mixture of isomers) [26-42], the IC50 came to 0.07 nM.

On to `COc1ccc(-c2nc(C(=O)NCc3csc4ccccc34)c(CN)o2)c2ccc(C(F)(F)F)nc12` [13-106], for which the IC50 was determined as 0.14 nM.

`COc1ccc(-c2nc(C(=O)NCc3coc4ccccc34)c([C@H](C)N)o2)c2ccc(C(F)(F)F)nc12` [26-92]: the IC50 came to 0.01 nM.

For the compound `COc1ccc(-c2nc(C(=O)N3CCC(Nc4ncccn4)CC3)c([C@H](C)N)o2)c2ccc(C(F)(F)F)nc12` [26-177], inhibition was half-maximal at 3 nM (IC50).

As for `COc1ccc(-c2nc(C(=O)N3C[C@](O)(c4ncccn4)C[C@H]3C(=O)OC(C)C)c([C@H](C)N)o2)c2ccc(C(F)(F)F)nc12` [26-241], the IC50 was 0.2 nM.

As for `COc1ccc(-c2nc(C(=O)N3CCN(C(=O)C4CC4)CC3)c([C@H](C)N)o2)c2ccc(C(F)(F)F)nc12` [26-293], half-maximal inhibition (IC50) required 0.5 nM.

`COc1ccc(-c2nc(C(=O)N[C@H]3CCC[C@@H]3O)c([C@H](C)N)o2)c2ccc(C(F)(F)F)nc12` [26-417] came in with an IC50 of 1.4 nM.

The compound `COc1ccc(-c2nc(C(=O)NC[C@@H](C)NC(=O)C3CC3)c([C@H](C)N)o2)c2ccc(C(F)(F)F)nc12` [26-444] gave an IC50 of 0.03 nM.

`COc1ccc(-c2nc(C(=O)NCc3ccc(F)cc3F)c([C@@H](N)CO)o2)c2ccc(C(F)(F)F)nc12` [38-3] came in with an IC50 of 1.8 nM.

The term IC50 denotes the midpoint of a concentration-inhibition curve. A higher IC50 goes with weaker potency.
